Experimental data from the supplement of paper PMC10307832.

Key:
Assay in all cases: relative viability (nuclei count vs DMSO), 5 days (fraction); higher = more cells survive
AZ3146 + Dasatinib = compound: CN1CCC(CC1)OC2=CC(=C(C=C2)NC3=NC=C4C(=N3)N(C(=O)N4C)C5CCCC5)OC [AZ3146] + Cc1nc(Nc2ncc(C(=O)Nc3c(C)cccc3Cl)s2)cc(N2CCN(CCO)CC2)n1 [Dasatinib] (partner 0.075 µM)
Procedure, shortened: (§1)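 Relative viability was taken as the ratio of nuclei in treated wells to nuclei in vehicle wells. Lung cancer cell lines in 1536-well plates received compounds by pin tool one day after seeding, either one drug alone or a fixed anchor-drug dose plus five library-drug doses (not always all listed) in √10 steps. Nuclei were counted on 4× images after 5 days of treatment, and values are medians of duplicate plates.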

GSK-J4 + Lapatinib = compound: CCOC(=O)CCNc1cc(N2CCc3ccccc3CC2)nc(-c2ccccn2)n1 [GSK-J4] + CS(=O)(=O)CCNCc1ccc(-c2ccc3ncnc(Nc4ccc(OCc5cccc(F)c5)c(Cl)c4)c3c2)o1 [Lapatinib] (partner 2 µM)
Procedure, shortened: as §1

AZ3146 + Luminespib = compound: CN1CCC(CC1)OC2=CC(=C(C=C2)NC3=NC=C4C(=N3)N(C(=O)N4C)C5CCCC5)OC [AZ3146] + CCNC(=O)c1noc(-c2cc(C(C)C)c(O)cc2O)c1-c1ccc(CN2CCOCC2)cc1 [Luminespib] (partner 0.01 µM)
Procedure, shortened: as §1

GSK-J4 + Navitoclax = compound: CCOC(=O)CCNc1cc(N2CCc3ccccc3CC2)nc(-c2ccccn2)n1 [GSK-J4] + CC1(C)CCC(c2ccc(Cl)cc2)=C(CN2CCN(c3ccc(C(=O)NS(=O)(=O)c4ccc(N[C@H](CCN5CCOCC5)CSc5ccccc5)c(S(=O)(=O)C(F)(F)F)c4)cc3)CC2)C1 [Navitoclax] (partner 0.5 µM)
Procedure, shortened: as §1

Row | Cell Line | relative viability (AZ3146 + Dasatinib; first compound 0.08 µM) | relative viability (AZ3146 + Dasatinib; first compound 0.253 µM) | relative viability (AZ3146 + Dasatinib; first compound 0.8 µM) | relative viability (AZ3146 + Dasatinib; first compound 2.53 µM) | relative viability (AZ3146 + Dasatinib; first compound 8 µM) | relative viability (GSK-J4 + Lapatinib; first compound 0.5 µM) | relative viability (GSK-J4 + Lapatinib; first compound 1.581 µM) | relative viability (GSK-J4 + Lapatinib; first compound 5 µM) | relative viability (GSK-J4 + Lapatinib; first compound 15.81 µM) | relative viability (GSK-J4 + Lapatinib; first compound 50 µM) | relative viability (AZ3146 + Luminespib; first compound 0.08 µM) | relative viability (AZ3146 + Luminespib; first compound 0.253 µM) | relative viability (AZ3146 + Luminespib; first compound 0.8 µM) | relative viability (AZ3146 + Luminespib; first compound 2.53 µM) | relative viability (AZ3146 + Luminespib; first compound 8 µM) | relative viability (GSK-J4 + Navitoclax; first compound 0.5 µM) | relative viability (GSK-J4 + Navitoclax; first compound 1.581 µM) | relative viability (GSK-J4 + Navitoclax; first compound 5 µM) | relative viability (GSK-J4 + Navitoclax; first compound 15.81 µM) | relative viability (GSK-J4 + Navitoclax; first compound 50 µM)
1 | NCI-H661 | 0.867 | 0.859 | 0.927 | 0.765 | 0.459 | 0.483 | 0.472 | 0.405 | 0.349 | 0.386 | 0.928 | 0.968 | 0.96 | 0.896 | 0.688 |  |  |  |  | 
2 | EBC-1 |  |  |  |  |  | 0.199 | 0.244 | 0.243 | 0.235 | 0.209 |  |  |  |  |  | 0.367 | 0.4 | 0.356 | 0.4 | 0.264
3 | NCI-H522 | 0.721 | 0.73 | 0.863 | 0.815 | 1.02 |  |  |  |  |  | 1.1 | 1.03 | 1.2 | 1.13 | 1.18 |  |  |  |  | 
4 | NCI-H650 | 0.351 | 0.428 | 0.435 | 0.482 | 0.491 | 0.841 | 0.579 | 0.614 | 0.783 | 0.614 | 0.734 | 0.706 | 0.764 | 0.904 | 0.854 |  |  |  |  | 
5 | NCI-H2342 | 0.293 | 0.275 | 0.29 | 0.29 | 0.345 |  |  |  |  |  | 0.624 | 0.719 | 0.901 | 0.698 | 0.688 |  |  |  |  | 
6 | NCI-H1299 |  |  |  |  |  | 0.861 | 0.924 | 0.851 | 0.953 | 0.875 |  |  |  |  |  | 1.08 | 0.875 | 0.955 | 1.04 | 0.971
7 | SW 900 | 0.479 | 0.456 | 0.503 | 0.666 | 0.337 |  |  |  |  |  | 0.176 | 0.167 | 0.18 | 0.184 | 0.167 |  |  |  |  | 
